Assay results taken from US20090202499A1, “Human Telomerase Reverse Transcriptase Peptides” (priority 2006, published 2009).
“Also recorded” adds a separate entry of the source.

How the values were obtained:
HLA-B7 (HLA-B*0702) = HLA-B7 (HLA-B*0702) (Homo sapiens, UniProt P01889); test: MHC stabilization assay on T2-B7 cells (relative avidity); assay type: cell-based; conditions: summary of both binding assays of Table II
Experimental: MHC binding assays. Relative avidity measurements. The relative avidity of hTRT peptides for HLA B7 was measured using a MHC stabilization assay on T2-B7 cells in comparison with a reference peptide as described previously (14).
(§1) Next, we assessed the actual binding avidity for HLA-B7 (HLA-B*0702). Two independent assays were used: binding stabilization assay on T2-B7 cells by flow cytometry (12) and a competitive solid-phase radioimmunoassay on immobilized purified HLA-B7 molecule (35).

[1] = test system: HLA B7-supertype molecules (B*0702, B*3501, B*5101, B*5301, B*5401) and B*0801; test: HLA-B7 supertype binding, summary over the allele panel; set-up: species or system human; conditions: alleles B*3501, B*5101, B*5301, B*5401 and B*0801
Experimental: (§2) Supertype analysis. Quantitative assays to measure the binding affinity of peptides to purified HLA B7-supertype molecules (B*0702, B*3501, B*5101, B*5301, B*5401) and B*0801 were based on the inhibition of binding of a radiolabeled standard peptide, and were performed as previously described (22, 35). Briefly, 1-10 nM of radiolabeled peptide was co-incubated at room temperature with 1 microM to 1 nM of purified MHC in the presence of 1-3 μM human beta2-microglobulin (Scripps Laboratories, San Diego, Calif.) and a cocktail of protease inhibitors. After a two-day incubation, binding of the radiolabeled peptide to the corresponding MHC class I molecule was determined by capturing MHC/peptide complexes on Greiner Lumitrac 600 microplates (Greiner Bio-one, Longwood, Fla.) coated with the W6/32 antibody, and measuring bound counts per minute (cpm) using the TopCount microscintillation counter (Packard Instrument Co.). […] Under the conditions utilized, where [label]<[MHC] and IC50≧[MHC], the measured IC50 values are reasonable approximations of the true Kd values.
(§3) HLA molecules are highly polymorphic posing problems to the identification of peptides, which could be used to cover the totality of the human population. However, HLA alleles can be clustered into a relatively small number of groups termed supertypes (21). The HLA-B7 supertype includes ten alleles (22). Here, we decided to test the selected hTRT peptides for their ability to bind five out of ten members of the HLA-B7 supertype (B*3501, B*5101, B*5301, B*5401) and B*0801. The B*0801 allele shares binding features with B*0702, although is not officially part of the HLA-B7 supertype. This analysis had the purpose to further narrow the selection of putative HLA-B7 immunogens based on supertype binding (Table V).

B*5401 = B*5401 (Homo sapiens, UniProt P01889, A329T/C349S/D138N/D201E/E176V/E187T/E204Q/E69G/I76V/K202T/L119W/R155S/R180L/S121T/S35A/S48A/V127L/V306I/V36M/Y140L); test: HLA-B7 supertype binding assay
Experimental: as §2, §3

B*0801 = B*0801 (Homo sapiens, UniProt P01889, A93T/A95T/D138N/E176V/E187T/K202T/Q94N/R180D/S35A/V36M/Y33D/Y91F); test: biochemical
B*0702 = B*0702 (Homo sapiens, UniProt P01889); test: competition solid-phase radioimmunoassay on purified HLA molecule; assay type: binding
Experimental: as §2, §1

[2] = test system: human T2-B7 pulsed with p1123; test: murine CTL line specific for p1123, 51Cr-release assay; assay type: cell-based; conditions: mCTL from p1123-immunized HLA-B7 Tg mice
[3] = test system: T2-B7 target cells pulsed with p1123; test: conventional in vitro immunization of human PBMC with p1123, 51Cr-release assay; assay type: cell-based
Experimental: FIG. 4. Characterization of human CTL generated by in vitro immunization. An example of one of two HLA-B7^+ normal donor PBMC from and a prostate cancer patient. Immunization in vitro was performed using a conventional method (12). […] CTL were tested after 5 cycles of in vitro restimulation with homologous peptide. (B) Surface phenotype analysis using anti-CD3 and anti-CD8 monoclonal antibodies of the CTL shown in panel A. The percentage of double positive cells is indicated. […] CTL were tested after 7 cycles of in vitro restimulation with homologous peptide. (D) Surface phenotype analysis using anti-CD3 and anti-CD8 monoclonal antibodies of the CTL from the same patient shown on panel C after 5 cycles of in vitro restimulation with homologous peptide. Experiments shown in A and B are representative of set of similar data from two normal donors examined at different times.
In vitro immunization procedures. In experiments shown in Table III and FIG. 3, immunizations were performed in 96 well plates. […]
CTL assays. Both murine and human CTL were detected by the ^51Cr release assay performed as previously described (14). […] The supernatants were harvested and counted on a Wallac 1470 Wizard Gamma counter. The percent lysis was calculated as 100 (cpmexp−cpmspont)/(cpmmax−cpmspont). […]

| SMILES | binding avidity for HLA-B7 (in words) (HLA-B7 (HLA-B*0702)) | HLA-B7 supertype binding (in words) [1] | IC50 (B*5401) [µM] | IC50 (B*0801) [µM] | IC50 (B*0702) [µM] | lytic activity of mCTL line for T2-B7 pulsed with peptide (in words) [2] | CTL induction and lysis of T2-B7 pulsed with p1123 (in words) ([3]; PBMC from HLA-B7+ normal blood donors, repeated in vitro restimulation) | efficiency of CTL induced (in words) ([3]; PBMC from a prostate cancer patient, compared with normal donors) |
| --- | --- | --- | --- | --- | --- | --- | --- | --- |
| CC(C)C[C@H](NC(=O)[C@H](CO)NC(=O)[C@@H](NC(=O)[C@H](C)NC(=O)[C@H](CCC(=O)O)NC(=O)[C@H](CCC(=O)O)NC(=O)[C@H](C)NC(=O)[C@@H]1CCCN1C(=O)[C@@H](N)CCCNC(=N)N)[C@@H](C)O)C(=O)O [p277] | high avidity binding; also recorded: high binding in vitro | bound four alleles with intermediate avidity | – | – | – | – | – | – |
| CC(C)C[C@H](NC(=O)[C@H](CO)NC(=O)[C@H](CO)NC(=O)[C@H](CC(C)C)NC(=O)[C@H](CC(C)C)NC(=O)[C@H](Cc1ccccc1)NC(=O)[C@H](CO)NC(=O)[C@@H]1CCCN1C(=O)[C@@H](N)CCCNC(=N)N)C(=O)O [p342] | – | – | 12.6 | 0.037 | – | – | – | – |
| CC(C)C[C@H](NC(=O)[C@H](CC(C)C)NC(=O)[C@H](CCC(N)=O)NC(=O)[C@@H](NC(=O)[C@H](CC(C)C)NC(=O)[C@H](CCCNC(=N)N)NC(=O)[C@H](CCCNC(=N)N)NC(=O)[C@@H]1CCCN1C(=O)[C@@H](N)CC(=O)O)C(C)C)C(=O)O [p444] | poor and weak binding and poor binding | little HLA-B7 supertype binding | 21.9 | 0.217 | 0.239 | – | – | – |
| CC(C)C[C@H](NC(=O)[C@H](CCCNC(=N)N)NC(=O)[C@H](CCCNC(=N)N)NC(=O)[C@H](CC(C)C)NC(=O)[C@H](CS)NC(=O)[C@H](C)NC(=O)[C@H](CCCNC(=N)N)NC(=O)[C@@H](NC(=O)[C@@H](N)Cc1ccccc1)C(C)C)C(=O)O [p464] | – | little HLA-B7 supertype binding | 18.8 | 0.123 | 0.0041 | – | – | – |
| CC(C)C[C@H](NC(=O)[C@H](C)NC(=O)[C@@H](NC(=O)[C@H](CC(C)C)NC(=O)[C@@H](NC(=O)[C@@H](NC(=O)CNC(=O)[C@@H]1CCCN1C(=O)[C@@H](N)CC(C)C)[C@@H](C)O)[C@@H](C)O)[C@@H](C)O)C(=O)O [p1107, LPGTTLTAL] | high avidity binding; also recorded: high binding in vitro | bound with high avidity three out of five alleles | > 50 | 0.192 | 0.00096 | – | – | – |
| CC[C@H](C)[C@H](NC(=O)[C@@H](NC(=O)[C@H](CCCCN)NC(=O)[C@H](Cc1ccccc1)NC(=O)[C@H](CC(=O)O)NC(=O)[C@H](CO)NC(=O)[C@@H]1CCCN1C(=O)[C@@H](N)CC(C)C)[C@@H](C)O)C(=O)N[C@@H](CC(C)C)C(=O)O [p1123] | – | bound to various alleles of the HLA-B7 supertype; also recorded: measurable avidity for all alleles examined | 19.9 | 0.074 | 0.011 | high lytic activity | high efficiency CTL were induced | less efficient |
